Test results from patent US6248754A, “Substituted isoquinoline derivatives and their use as anticonvulsants” (SmithKline Beecham, p.l.c., priority 1997, dated 2001).

Legend:
[1] = biological target: novel receptor obtainable from rat forebrain tissue; assay: Radioligand binding assay, displacement of [3H]-Compound A; settings: competition with 20 nM [3H]-Compound A, room temperature 1 hour
Experimental: The affinity of test compounds to the novel receptor site is assessed as follows. Whole forebrain tissue is obtained from rats. The tissue is first homogenised in buffer (usually 50 mM Tris/HCl, pH 7.4). The homogenised tissue is washed by centrifugation and resuspension in the same buffer, then stored at -70° C. until used. To carry out the radioligand binding assay, aliquots of tissue prepared as above (usually at a concentration of 1-2 mg protein/ml) are mixed with aliquots of [3H]-Compound A dissolved in buffer. The final concentration of [3H]-Compound A in the mixture is usually 20 nM. The mixture is incubated at room temperature for 1 hour. [3H]-Compound A bound to the tissue is then separated from unbound [3H]-Compound A by filtration through Whatman GF/B glass fibre filters. The filters are then washed rapidly with ice-cold buffer. The amount of radioactivity bound to the tissue trapped on the filters is measured by addition of liquid scintillation cocktail to the filters followed by counting in a liquid scintillation counter. In order to determine the amount of "specific" binding of [3H]-Compound A, parallel assays are carried out as above in which [3H]-Compound A and tissue are incubated together in the presence of unlabelled Compound A (usually 3 μM). The amount of binding of [3H]-Compound A remaining in the presence of this unlabelled compound is defined as "non-specific" binding. This amount is subtracted from the total amount of [3H]-Compound A binding (i.e. that present in the absence of unlabelled compound) to obtain the amount of "specific" binding of [3H]-Compound A to the novel site. The affinity of the binding of test compounds to the novel site can be estimated by incubating together [3H]-Compound A and tissue in the presence of a range of concentrations of the compound to be tested. The decrease in the level of specific [3H]-Compound A binding as a result of competition by increasing concentrations of the compound under test is plotted graphically, and non-linear regression analysis of the resultant curve is used to provide an estimate of compound affinity in terms of pKi value.

[2] = tested on: maximal (tonic hindlimb extension) electroshock seizures in male rats; assay: Maximal electroshock seizure (MEST) threshold test, rat model; type: in vivo; settings: 2 mg/kg p.o. at 2 h, suspended in 1% methyl cellulose, statistically significant
Experimental: The maximal electroshock seizure (MEST) threshold test in rodents is particularly sensitive for detecting potential anticonvulsant properties^1. In this model, anticonvulsant agents elevate the threshold to electrically-induced seizures whilst proconvulsants lower the seizure threshold.
The threshold for maximal (tonic hindlimb extension) electroshock seizures in male rats (Sprague Dawley, 80-150 g, 6 weeks old) was determined by a Hugo Sachs Electronik stimulator which delivered a constant current (0.3 sec duration; from 1-300 mA in steps of 5-20 mA). The procedure is similar to that outlined above for mouse and full details are as published by Upton et al,.^4
The percentage increase or decrease in CC50 for each group compared to the control is calculated.
Drugs are suspended in 1% methyl cellulose.

Row | Structure (SMILES) | pKi [1] | increase in CC50 compared to control [2] [%]
1 | CCOc1ccc(C(=O)Nc2ccc3c(c2Cl)CNCC3)cc1Br [Example 2, N-(8-Chloro-1,2,3,4-tetrahydroisoquinolin-7-yl)-3-bromo-4-ethoxybenzamide] | greater than 7 | 120
2 | CCOc1ccc(C(=O)Nc2ccc3c(c2Cl)CN(C)CC3)cc1Br [Example 3, N-(8-chloro-2-methyl-1,2,3,4-tetrahydroisoquinolin-7-yl)-3-bromo-4-ethoxybenzamide] | greater than 7 | 160
3 | COc1ccc(C(=O)Nc2ccc3c(c2Cl)CNCC3)cc1C(F)(F)F [Example 5] | greater than 7 | 320
4 | COc1ccc(C(=O)Nc2ccc3c(c2Cl)CN(C)CC3)cc1C(F)(F)F [Example 6, N-(8-Chloro-2-methyl-1,2,3,4-tetrahydroisoquinolin-7-yl)-4-methoxy-3-trifluoromethylbenzamide] | – | 260
5 | COc1ccc(C(=O)Nc2ccc3c(c2Br)CNCC3)cc1C(F)(F)F [Example 8, N-(8-Bromo-1,2,3,4-tetrahydroisoquinolin-7-yl)-4-methoxy-3-trifluoromethylbenzamide] | – | 400
6 | COc1ccc(C(=O)Nc2ccc3c(c2Br)CN(C)CC3)cc1C(F)(F)F [Example 9, N-(8-Bromo-2-methyl-1,2,3,4-tetrahydroisoquinolin-7-yl)-4-methoxy-3-trifluoromethylbenzamide] | – | 340
7 | CCc1c(NC(=O)c2ccc(OC)c(C(F)(F)F)c2)ccc2c1CNCC2 [Example 14, N-(8-Ethyl-1,2,3,4-tetrahydroisoquinolin-7-yl)-4-methoxy-3-trifluoromethylbenzamide] | greater than 7 | –
8 | CCc1c(NC(=O)c2ccc(OC)c(C(F)(F)F)c2)ccc2c1CN(C)CC2 [Example 15, N-(8-Ethyl-2-methyl-1,2,3,4-tetrahydroisoquinolin-7-yl)-4-methoxy-3-trifluoromethylbenzamide] | greater than 7 | –
9 | COc1ccc(C(=O)Nc2ccc3c(c2C=Cc2ccccc2)CNCC3)cc1C(F)(F)F [Example 18, N-(8-Styryl-1,2,3,4-tetrahydroisoquinolin-7-yl)-4-methoxy-3-trifluoromethylbenzamide] | greater than 7 | –
10 | COc1ccc(C(=O)Nc2ccc3c(c2C=Cc2ccccc2)CN(C)CC3)cc1C(F)(F)F.Cl [Example 19, N-(8-Styryl-2-methyl-1,2,3,4-tetrahydroisoquinolin-7-yl)-4-methoxy-3-trifluoromethylbenzamide hydrochloride] | greater than 7 | –
